Data from patent publication US5196418A, “Hemicholinium lipids and use thereof” (Board of Supervisors, Louisiana State University …, priority 1992, dated 1993).

What was measured:
cell-cell aggregation = test: Inhibition of cell-cell aggregation (method of Fritz et al.); format: cell-based
Excerpt: Cell-cell aggregation studies by the method of Fritz et al., J. CeII.

CPT-II [1] = target: T1, CPT-II (Bos taurus, UniProt Q2KJB7); test: CPT inhibition (spectrophotometric assay, CPT-II prepared from beef liver); format: biochemical; conditions: CPT-II from beef liver, 10 μM decanoyl-CoA, L-carnitine 1 mM and 5 mM, pH 7.4, 30° C.
T1 construct: CPT-II was prepared from beef liver; from tissue; host or cells: beef liver
T1 sequence (Q2KJB7 26-658): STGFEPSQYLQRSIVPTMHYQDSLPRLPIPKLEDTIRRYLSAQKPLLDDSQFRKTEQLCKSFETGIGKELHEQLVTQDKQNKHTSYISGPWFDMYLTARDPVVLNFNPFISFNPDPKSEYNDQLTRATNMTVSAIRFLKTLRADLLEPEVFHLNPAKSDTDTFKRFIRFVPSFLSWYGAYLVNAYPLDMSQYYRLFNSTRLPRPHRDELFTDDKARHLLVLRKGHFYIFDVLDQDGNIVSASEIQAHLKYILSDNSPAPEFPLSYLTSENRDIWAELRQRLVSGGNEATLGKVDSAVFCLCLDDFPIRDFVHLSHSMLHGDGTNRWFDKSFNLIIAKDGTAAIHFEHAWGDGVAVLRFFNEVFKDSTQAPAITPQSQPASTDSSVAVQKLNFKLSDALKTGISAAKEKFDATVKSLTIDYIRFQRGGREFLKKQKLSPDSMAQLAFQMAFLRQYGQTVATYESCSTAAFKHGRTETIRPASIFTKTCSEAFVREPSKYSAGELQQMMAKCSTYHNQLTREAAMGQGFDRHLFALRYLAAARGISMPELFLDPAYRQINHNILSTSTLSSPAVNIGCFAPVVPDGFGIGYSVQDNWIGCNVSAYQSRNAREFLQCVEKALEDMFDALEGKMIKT
Method: (§1) Preparation: CPT-II was prepared from beef liver using the methods of P. R. H. Clarke and L. L. Bieber (1981) J. Biol. Chem., 256. 9861-9868.
(§2) In final volume of 1 ml, 20 mm KPO4^-, pH 7.4 at 30° C., 125 μM aldrithiol [4,4-dithio(bis)pyridine], 10 μM decanoyl-CoA, 10 μl enzyme (1.25 μg/ml) and inhibitor were preincubated at 30° C. for 1 min. and the reaction was initiated with L-carnitine. The absorbance change at 324 nm, followed in a spectrophotometer, was linear with time. L-carnitine conc. were 1 mM and 5 mM. H15C conc. ranged from 1.25 μM-12.5 μM (6values).

CPT-II [2] = test: as above; format: biochemical; conditions: Ki 2 μM versus 10.4 μM
Method: as §1, §2

Row | Ki (CPT-II [1]) [µM] | binding strength relative to palmitoylcholine (from Ki against CPT) (CPT-II [2]) | SMILES | Ki (cell-cell aggregation) [µM]
1 | – | – | CCCCCCCCCCCCCCCCC1(O)C[N+](C)(C)CCO1 (racemic) [Example 3, 2-Hexadecyl-2-hydroxy-4,4-dimethylmorpholinium Bromide] | 0.4
2 | – | – | CCCCCCCCCCCCCCC1(O)C[N+](C)(C)CCO1 (racemic) [Example 5, 2-Hydroxy-4,4-dimethyl-2,-tetradecylmorpholinium Bromide] | 1.5
3 | – | – | CCCCCCCCCCCCC1(O)C[N+](C)(C)CCO1 (racemic) [Example 7, 2-Dodecyl-2-hydroxy-4,4-dimethylmorpholinium Bromide] | 12
4 | 2 | five-fold stronger binding | CCCCCCCCCCCCCCCC1(O)C[N+](C)(C)CCO1.[Br-] (stereo not shown) [Example 4, 2Hydroxy-4,4-dimethyl-2-pentadecylmorpholinium Bromide] | 0.4
5 | – | – | CCCCCCCCCCCCCCCC(=O)C[N+](C)(C)CCCO [Example 9, N-(3-Hydroxypropyl)-N,N-dimethyl-N-(2-oxoheptadecyl)ammonium Bromide] | 0.75
